Source: US20120142676A1, “Oxathiazine and dithiine oxides as inhibitors of sulfhydryl-dependent biomolecules” (priority 2010, published 2012)

Experiments:
K562 cell homogenate = test: Thioglo-1 fluorescent labeling of sulfhydryl groups, K562 cell homogenate; type: biochemical, human; details: 50 μM drug, 6×10^5 cells, 37° C., 3 h, 20 mM Tris pH 8.0
Protocol: (§1) The ability of drugs to label sulfhydryl groups of cysteine, glutathione, human serum albumin (HSA) and biomolecules in K562 cells was determined spectrofluorometrically using Thioglo-1, a maleimide reagent that reacts quickly with the sulfhydryl groups to produce highly fluorescent covalent adducts. Drugs that react with sulfhydryl groups block the formation of fluorescent adducts when sulfhydryl reactant is treated with drugs prior to Thioglo-1 treatment. Cysteine (10 μM), glutathione (10 μM), human serum albumin (10 μM), or K562 cell homogenate (6×10^5 cells) in 20 mM Tris pH 8.0, was treated with 1μl of drug (or not) in DMSO at 50 μM reaction concentration at 37° C. for 3 h, followed by the addition of Thioglo-1 (22 μM). The fluorescence was measured in a Fluostar Galaxy (BMG, Durham, N.C.) fluorescence plate reader using an excitation wavelength of 380 nm and an emission wavelength of 520 nm, and the percentage inhibition of fluorescent labeling was obtained using the following equation: % Inhibition=[(1−(Fdrug−Fbackground)/Fdmso]×100, where Fdrug is the fluorescent value for Thioglo-1 treatment of biomolecules pretreated with drug, Fbackground is the fluorescent value for sample containing Thioglo-1 in Tris buffer only, and Fdmso is the fluorescent value for Thioglo-1 treatment of biomolecules pretreated with DMSO solvent only.

[1] = target: T1, human serum albumin (HSA) (Homo sapiens, UniProt P02768); test: Thioglo-1 fluorescent labeling of sulfhydryl groups, human serum albumin; type: biochemical; details: 50 μM drug, HSA 10 μM, 37° C., 3 h, 20 mM Tris pH 8.0
T1 sequence (P02768 25-609): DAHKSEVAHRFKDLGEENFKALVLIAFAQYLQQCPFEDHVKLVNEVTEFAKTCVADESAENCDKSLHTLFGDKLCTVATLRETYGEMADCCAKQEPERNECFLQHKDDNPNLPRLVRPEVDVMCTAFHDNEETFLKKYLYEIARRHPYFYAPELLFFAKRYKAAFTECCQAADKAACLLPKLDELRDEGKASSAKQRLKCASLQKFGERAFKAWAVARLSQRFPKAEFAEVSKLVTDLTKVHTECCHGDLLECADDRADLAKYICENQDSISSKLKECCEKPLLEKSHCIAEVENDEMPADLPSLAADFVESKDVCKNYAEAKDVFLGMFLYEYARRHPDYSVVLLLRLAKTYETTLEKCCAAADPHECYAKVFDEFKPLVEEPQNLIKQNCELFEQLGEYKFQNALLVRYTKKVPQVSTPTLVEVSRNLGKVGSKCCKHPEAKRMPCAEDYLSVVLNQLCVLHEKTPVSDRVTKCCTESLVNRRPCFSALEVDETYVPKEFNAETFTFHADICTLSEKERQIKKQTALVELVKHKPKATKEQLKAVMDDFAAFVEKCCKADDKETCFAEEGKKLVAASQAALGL
Protocol: as §1

[2] = Thioglo-1 fluorescent labeling of sulfhydryl groups, glutathione; details: 50 μM drug, 37° C., 3 h, 20 mM Tris pH 8.0
Protocol: as §1

[3] = target: T1, human serum albumin (HSA); test: ESI-MS study on covalent labeling of sulfhydryl group of HSA; type: binding; details: drug with 65 μM HSA, Tris pH 7.5, 5 h, room temperature
Protocol: The MS drug-HSA protein binding studies were carried out using an Applied Biosystems API 2000 Triple Quadrupole mass spectrometer (Thornhill, Canada) equipped with a syringe pump (Harvade Apparatus, Holliston, Mass.) at a flow rate of 5-10 μl/min. The Analyst software (version 1.4) was used for system control and data acquisition. The ESI source was operated in the positive ion mode with an electrospray voltage of +4.4 kV without capillary heating. MagTran freeware (version 1.02, http://www.geocities.com/SiliconValley/Hills/2679/magtran.html) was used for charge state deconvolution of HSA and drug-HSA covalent adducts.
The reaction of drug and HSA was carried out by mixing drug (or not) in DMSO (11μl, 6 mM) with HSA in 16 mM Tris pH 7.5 buffer (1 ml, 65 μM) for 5 h at room temperature. The reaction mixture was then dialyzed using a dialysis membrane with a 10,000 Da cutoff. The dialyzed mixture (150 μl) was diluted with a solution mixture of water (124 μl), methanol (76 μl), and formic acid (17 μl, 6% v/v). Scanning was 1000-1800 m/z units every 4 s with a step size of 0.10 amu.

[4] = system: human leukemia K562 cells; test: K562 cell growth inhibition assay (MTS); type: cell-based; details: 72 h incubation, read-out: Median growth inhibitory concentration (IC50) of K562 cells
Protocol: K562 cells were obtained from American Type Culture Collection (Rockville, Md.). These cells were maintained as suspension cultures in alpha minimum essential medium (αMEM) (Gibco BRL, Burlington, Canada) containing 2 mM L-glutamine and supplemented with 10% fetal calf serum (Invitrogen, Burlington, ON, Canada), 20 mM NaHCO3, 20 mM HEPES (Sigma), 100 units/ml penicillin G, and 100 μg/ml streptomycin at pH 7.4 in an atmosphere of 5% CO2 and 95% air at 37° C. For the measurement of growth inhibition, cells in exponential growth were harvested and seeded at 6000 cells/well in 96-well plates (100 μl/well). Drugs were dissolved in DMSO and added to the wells such that the final concentration of DMSO was 0.5% (v/v). After 72 h incubation, 7 μl of 3-(4,5-dimethylthiazol-2-yl)-5-(3-carboxymethoxyphenyl)-2-(4-sulfophenyl)-2H-tetrazolium (MTS) Cell Titer 96® AQueous One Solution (Promega, Md., WI) was added to each well and incubated for a further 3 h. The absorbance was measured in a Molecular Devices (Menlo Park, Calif.) plate reader. The spectrophotometric 96-well plate cell growth inhibition assay measures the ability of the cells to enzymatically reduce MTS. Three replicates were measured at each drug concentration, and the IC50 values and their SEs for growth inhibition were obtained by fitting the absorbance-drug concentration data to a four-parameter logistic equation.

human topoisomerase IIα = target: T2, human topoisomerase IIα (Homo sapiens, UniProt P11388); test: Topoisomerase IIα decatenation inhibition assay; type: biochemical; details: K562 cells nuclear extract, kDNA decatenation
T2 construct: 300 ng K562 cells nuclear extract, the amount that gave 80% decatenation; endogenous in cells; host or cells: K562 cells nuclear extract
T2 sequence (P11388 whole entry): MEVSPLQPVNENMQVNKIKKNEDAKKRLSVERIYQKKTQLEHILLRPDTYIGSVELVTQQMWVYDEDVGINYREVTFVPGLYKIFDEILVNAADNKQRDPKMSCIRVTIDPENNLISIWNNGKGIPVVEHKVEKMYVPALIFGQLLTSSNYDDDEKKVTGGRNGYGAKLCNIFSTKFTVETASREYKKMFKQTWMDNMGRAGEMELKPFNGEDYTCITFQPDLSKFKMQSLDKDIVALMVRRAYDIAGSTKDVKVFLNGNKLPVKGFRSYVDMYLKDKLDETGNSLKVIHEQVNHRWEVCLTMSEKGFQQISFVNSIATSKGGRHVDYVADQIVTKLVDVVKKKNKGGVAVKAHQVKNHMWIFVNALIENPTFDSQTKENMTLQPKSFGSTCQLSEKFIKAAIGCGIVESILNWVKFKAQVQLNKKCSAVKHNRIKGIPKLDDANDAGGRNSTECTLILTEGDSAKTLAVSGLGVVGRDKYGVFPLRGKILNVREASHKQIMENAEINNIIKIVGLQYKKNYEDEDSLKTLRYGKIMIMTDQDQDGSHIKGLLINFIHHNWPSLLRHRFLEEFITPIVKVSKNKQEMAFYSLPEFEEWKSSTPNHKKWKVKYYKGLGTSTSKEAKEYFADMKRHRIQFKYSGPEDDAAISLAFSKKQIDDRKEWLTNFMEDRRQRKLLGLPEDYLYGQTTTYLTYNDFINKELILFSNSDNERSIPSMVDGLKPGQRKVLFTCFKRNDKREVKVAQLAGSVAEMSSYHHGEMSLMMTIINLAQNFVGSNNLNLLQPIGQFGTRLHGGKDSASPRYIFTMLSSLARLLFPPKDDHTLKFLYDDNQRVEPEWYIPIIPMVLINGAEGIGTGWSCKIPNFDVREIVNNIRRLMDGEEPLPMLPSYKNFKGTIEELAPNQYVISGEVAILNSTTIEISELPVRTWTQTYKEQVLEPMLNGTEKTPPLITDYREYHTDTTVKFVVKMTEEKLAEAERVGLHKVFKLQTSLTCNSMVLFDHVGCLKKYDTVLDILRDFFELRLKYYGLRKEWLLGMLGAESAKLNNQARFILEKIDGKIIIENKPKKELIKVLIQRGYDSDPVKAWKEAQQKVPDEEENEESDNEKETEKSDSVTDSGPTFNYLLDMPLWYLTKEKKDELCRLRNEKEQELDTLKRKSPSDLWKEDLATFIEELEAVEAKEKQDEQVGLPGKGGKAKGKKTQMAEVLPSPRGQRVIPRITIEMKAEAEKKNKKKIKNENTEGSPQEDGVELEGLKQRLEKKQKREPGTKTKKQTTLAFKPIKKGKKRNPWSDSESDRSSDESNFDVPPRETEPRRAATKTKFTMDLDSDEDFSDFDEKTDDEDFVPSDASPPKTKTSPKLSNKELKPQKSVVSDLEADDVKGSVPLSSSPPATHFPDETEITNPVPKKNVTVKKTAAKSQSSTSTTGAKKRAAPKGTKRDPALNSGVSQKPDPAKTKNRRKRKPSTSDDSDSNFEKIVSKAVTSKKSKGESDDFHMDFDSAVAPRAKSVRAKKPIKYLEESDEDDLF
Protocol: The catalytic inhibition of human topoisomerase IIα by a drug was measured by the ATP-dependent decatenation of kDNA (Topogen, Columbus, Ohio) into minicircles of DNA as we previously described (Hasinoff 1995 QSAR ICRF-187). The 20 μl reaction mixture contained 0.5 mM ATP, 50 mM Tris-HCl (pH 8.0), 120 mM KCl, 10 mM MgCl2, 30 μg/ml bovine serum albumin, 40 ng kDNA, drug or DMSO (0.5 μl) and 300 ng K562 cells nuclear extract, the amount that gave 80% decatenation. The enzymatic reaction was carried out at 37° C. and was terminated by the addition of 6 μl of buffer containing 5 mM Tris pH 8.0, 30% w/v sucrose, 0.5% bromophenol blue, and 125 mM EDTA. The resulting mixture was separated by electrophoresis (2 h at 8 V/cm) on an agarose gel prepared from 1.2% w/v agarose and 0.5 μg/ml ethidium bromide in TAE buffer pH 8.0 (40 mM Tris base, 0.114% (v/v) glacial acetic acid, 2 mM EDTA). The DNA in the gel was imaged by its fluorescence on an Alpha Annotech Fluorchem 8900 imaging system equipped with a 365 nm illuminator and a CCD camera. Densitometry scanning of gel photographs was used to obtain the fluorescence intensity of the band corresponding to the DNA minicircles. The percentage inhibition of K562 topoisomerase II catalytic activity at concentrations of 3 and 30 μM was determined using the following equation: % Inhibition=[(1−(Bdrug−Bbackground)/Bdmso]×100, where Bdrug is the band intensity value for the enzymatic reaction sample treated with drug, Bbackground is the band intensity value for sample without the enzyme, and Bdmso is the band intensity value for the enzymatic reaction sample treated with DMSO solvent only.

[5] = Thioglo-1 fluorescent labeling of sulfhydryl groups, cysteine; details: 50 μM drug, 37° C., 3 h, 20 mM Tris pH 8.0
Protocol: as §1

[O-][S+]1CCON=C1c1cc2ccccc2s1 (centres unmarked) [CMPD #9]
% Inhibition of Thioglo-1 fluorescent labeling of K562 Cell homogenate (K562 cell homogenate): 95% | % Inhibition of Thioglo-1 fluorescent labeling of Human serum albumin [1]: 85% | % Inhibition of Thioglo-1 fluorescent labeling of 10 μM Glutathione [2]: 100% | Covalent labeling of HSA (ESI-MS peak description) [3]: Covalent adduct of HSA and Compound 9 | IC50 [4]: 700 nM | % Inhibition of topoisomerase II catalytic activity (human topoisomerase IIα; 3 μM): 100% | % Inhibition of topoisomerase II catalytic activity (human topoisomerase IIα; 30 μM): 100% | % Inhibition of Thioglo-1 fluorescent labeling of 10 μM Cysteine [5]: 100%
